How the values were obtained:
CD34+ HSPCs [1] = assay: Signaling-inhibitor experiments: MkMP-induced Mk differentiation of inhibitor-pretreated CD34+ HSPCs; details: for percent of cells CD34−CD41+: day 12, representative quadrant plots (FIG. 11E); for fraction of cells CD34+CD41−: day 7, representative quadrant plots (FIG. 11E)
Protocol: Signaling-inhibitor experiments: 60,000 CD34^+ HSPCs were pretreated with signaling inhibitors for 30 min, followed by co-culture with MkMPs (30 MPs per cell) in IMDM supplemented with 10% BIT 9500 and 50 ng/mL SCF. Inhibitors were replenished at days 3 and 7. At day 4, 7 and 12, cells were harvested for flow cytometric analysis of CD41, CD42b, and CD34 expression. Total-cell and Mk counts were measured at day 7.
To further investigate the effects of MkMPs in promoting megakaryocytic differentiation of CD34^+ HSPCs, and how this might relate to the miR content of MkMPs, we next probed likely signaling pathways using kinase inhibitors. […] Briefly, CD34^+ HSPCs were pretreated with kinase inhibitors of chosen signaling pathways (JNK, p38, MEK, PI3K, Akt and mTOR inhibitors, Table 6) for 30 min before they were co-cultured with MkMPs at the ratio of 10 MkMPs/cell. Inhibitors were replenished at days 3 and 7. CD41, CD42b and CD34 expression, and cell numbers were measured at days 4, 7, and 12.

PTEN [2] = assay: PTEN protein expression by flow cytometry in CD34+ HSPCs; type: cell-based, human; details: JNK inhibitor pretreatment, MkMP co-culture 24 hours (FIG. 13A)
Protocol: Cells were fixed in 4% paraformaldehyde for 15 min at room temperature, followed by the permeabilization in 90% methanol for 30 min at 4° C. After washing in PBS, cells were stained with Alexa 647-conjugated anti-mTOR (#5048S), PE-conjugated anti-Akt (#8790S), or Alexa 488-conjugated anti-p-Akt (#4071S) antibodies from Cell Signaling, or Alexa 647-conjugated anti-p-mTOR (#564242) from BD bioscience, for 1 hour at room temperature, followed by flow-cytometric analysis.
Phosphatase and TENsin homolog (PTEN) is a negative regulator of PI3K/Akt signaling in HSC development. Loss of PTEN results in enhanced cellular proliferation and megakaryopoiesis due to overactive of PI3K/Akt signaling. We hypothesized that activation of PI3K/Akt/mTOR signaling by MkMPs might be PTEN mediated. We thus examined the mRNA level of PTEN by quantitative PCR, and PTEN protein level by flow cytometry and immunoblotting. The impact on PTEN mRNA levels appears higher than that on protein levels. Compared to the vehicle control, PTEN protein or mRNA levels were around 10% or 30% lower, respectively, in HSPCs co-cultured with MkMPs (FIGS. 13A and 13B). […] These statistically-significant but relatively low-impact effects on PTEN protein expression would be expected given that the measurements were done within the first 24 hours of the co-culture, rather than late in the co-culture.

PTEN [3] = assay: PTEN mRNA level by qRT-PCR in CD34+ HSPCs; type: cell-based, human; details: JNK inhibitor pretreatment, MkMP co-culture 24 hours (FIG. 13B)
Protocol: Quantitative reverse transcription PCR (qRT-PCR): CD34^+ HSPCs pretreated with JNK inhibitor or solution without an inhibitor were co-cultured with MkMPs, non-targeting miR-loaded MkMPs, miR-486-5p inhibitor-loaded MkMPs at 30 MPs per cell, or vehicle control. At 24 hr, cells were harvested and total RNA was isolated, reversed transcribed for qPCR assay as described by Kao and Papoutsakis (Sci Adv. 2018; 4:eaau6762). qPCR assays for PTEN and GAPDH were performed with PerfeCTa SYBR Green Supermix (QuantaBio) and the following primers: Forward (5′-[…]-3′) (SEQ ID NO: 1), Reverse (5′-[…]-3′) (SEQ ID NO: 2) for PTEN, and Forward (5′-[…]-3′) (SEQ ID NO: 3), Reverse (5′-[…]-3′) (SEQ ID NO: 4) for GAPDH. PTEN mRNA level were quantified by normalized to GAPDH mRNA level as the reference gene.
Phosphatase and TENsin homolog (PTEN) is a negative regulator of PI3K/Akt signaling in HSC development. Loss of PTEN results in enhanced cellular proliferation and megakaryopoiesis due to overactive of PI3K/Akt signaling. We hypothesized that activation of PI3K/Akt/mTOR signaling by MkMPs might be PTEN mediated. We thus examined the mRNA level of PTEN by quantitative PCR, and PTEN protein level by flow cytometry and immunoblotting. The impact on PTEN mRNA levels appears higher than that on protein levels. […]

CD34+ HSPCs [4] = assay: Transfection of CD34+ HSPCs with miR mimics, culture without TPO; flow cytometry of CD41/CD42b, Mk and total cell counts; type: cell-based, human
Protocol: Transfection of CD34^+ HSPCs with miR mimics: 200,000 CD34^+ cells were freshly thawed and cultured in IMDM supplemented with 20% BIT 9500, and 100 ng/mL SCF. After 3 hours, cells were transfected with 8 μM of miR mimics, non-targeting miR (miR-NC), or without miR (No miR) using the Amaxa Nucleofector II with program U-08. […] Cells cultured in TPO-supplemented medium (100 ng/ml TPO), or co-cultured with MkMPs served as positive controls (TPO, MkMP). The medium was replaced one day after transfection. […] At day 13, cells were harvested for serotonin (5-HT), von willebrand factor (vWF), beta 1 tubulin (TUBB1), and DAPI staining, as described^7. The images were taken by ZEISS LSM 880 multiphoton confocal microscope. At day 16, cells were harvested for ploidy analysis by flow-cytometric analysis as described by Lindsey and Papoutsakis (Br J Haematol. 2011; 152(4):469-484).
To determine if there is a dose effect of miR mimics on Mk differentiation of HSPCs, using CD41 expression as the key early Mk-differentiation marker, we carried out a pilot study with two donor CD34^+-cell samples. CD34^+ HSPCs were transfected with high (8 μM) or low (2 μM) concentrations of miR-486-5p or miR-22-3p (generally known as miR-22) mimics were and cultured without TPO. […]

[5] = day 7, MkMP co-culture, inhibitor 10 uM (FIG. 11A)

Compound	percent of cells CD34−CD41+ (CD34+ HSPCs [1])	CD41 expression (CD34+ HSPCs [1]; [5])	fraction of cells CD34+CD41− (CD34+ HSPCs [1])	other results
O=c1cc(N2CCOCC2)oc2c(-c3ccccc3)cccc12 [LY-294002]	16.5%			
CO[C@H]1C[C@@H]2CC[C@@H](C)[C@@](O)(O2)C(=O)C(=O)N2CCCC[C@H]2C(=O)O[C@H]([C@H](C)C[C@@H]2CC[C@@H](O)[C@H](OC)C2)CC(=O)[C@H](C)/C=C(\C)[C@@H](O)[C@@H](OC)C(=O)[C@H](C)C[C@H](C)/C=C/C=C/C=C/1C [Rapamycin]	6.0%	32.1%	48.3%	
C[S+]([O-])c1ccc(-c2nc(-c3ccncc3)c(-c3ccc(F)cc3)[nH]2)cc1 (centres unmarked) [SB203580]			43.4%	CD41 expression (CD34+ HSPCs [1]; day 12, MkMP co-culture, compared to MkMP control (FIG. 11B)): significantly suppressed CD41 expression
Oc1c2ccccc2c2c3c(cccc13)N=N2 [SP600125]	12.6%	32.8%	52.1%	PTEN protein level above vehicle-control level (PTEN [2]): 17%; PTEN mRNA level above vehicle-control level (PTEN [3]): 260%
COC[C@H]1OC(=O)c2coc3c2[C@@]1(C)C1=C(C3=O)[C@@H]2CCC(=O)[C@@]2(C)C[C@H]1OC(C)=O [Wortmannin]	25.3%			
TPO: recombinant human thrombopoietin, 100 ng/ml, positive control				percent of cells expressing CD41 (CD34+ HSPCs [4]; day 13, electroporated CD34+ cells, miR mimics without TPO, TPO 100 ng/ml or MkMP co-culture as positive controls (FIGS. 7A, 7B)): 56%; percent CD41+CD42b+ double positive cells (CD34+ HSPCs [4]; day 13, representative quadrant plots (FIG. 7D)): 38.9%

Source: patent US20220372441A1, “MICRORNAS ENRICHED IN MEGAKARYOCYTIC EXTRACELLULAR VESICLES AND USES THEREOF” (University of Delaware, priority 2019, published 2022)
